Data on ten compounds can be found in article PMC6349905 (Cell Death Discovery, 2019).

In general, Kd refers to the concentration at which binding is half-saturated. In general, Ki refers to a measure of affinity in units of concentration, obtained from inhibition or displacement. A word on the EC50: it is the concentration that produces a half-maximal response. The low end stands for an effect from little substance, the high end for a need for much substance.

In data set [1] the target is T1, sigma-2 receptors (Rattus norvegicus, UniProt Q5U3Y7).
T1 sequence (Q5U3Y7 1-176): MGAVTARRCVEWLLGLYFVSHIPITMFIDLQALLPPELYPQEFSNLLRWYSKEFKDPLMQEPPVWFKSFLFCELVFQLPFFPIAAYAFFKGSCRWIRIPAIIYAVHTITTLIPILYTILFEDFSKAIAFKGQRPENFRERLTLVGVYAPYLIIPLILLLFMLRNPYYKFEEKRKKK
The note with it: rat liver membranes, 500 nM (+)-pentazocine mask.
Method: binding, the nonspecific binding was determined inthe presence of
was added to mask the sigma-1 receptor binding site and the
nonspecific binding was determined in the presence 10 μM DTG.
The Kd and Bmax values were determined by a nonlinear regression
analysis using GraphPad Prism software.
The Kd and Bmax values were
reported as mean ± SD in at least three independent experiments

The target in data set [2] is DTG residual binding site (RBS). Further details: method as in PMID 30443021. The note with it: TMEM97 KO HeLa cell membranes; read-out: Kd for the [3H]DTG RBS, TMEM97 KO cell membranes; cited from earlier work.
Data set [3] shares this target. Set-up: method as in PMID 30443021. The note with it: double KO HeLa cell membranes; read-out: Kd for the [3H]DTG RBS, double KO cell membranes; cited from earlier work.
For data set [4], the target named is T2, sigma-1 receptors (Cavia porcellus, UniProt Q60492).
T2 construct: 100 μg guinea pig brain membrane homogenates; from tissue; host or cells: guinea pig brain membrane homogenates
T2 sequence (Q60492 whole entry): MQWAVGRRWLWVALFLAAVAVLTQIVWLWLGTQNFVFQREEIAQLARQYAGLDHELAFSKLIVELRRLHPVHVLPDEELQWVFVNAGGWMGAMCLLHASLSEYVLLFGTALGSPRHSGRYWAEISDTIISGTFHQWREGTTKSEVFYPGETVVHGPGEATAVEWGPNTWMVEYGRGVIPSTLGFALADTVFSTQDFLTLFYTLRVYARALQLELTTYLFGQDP
Kind of data set: Sigma-1 receptor competition binding assay with [3H](+)-pentazocine. Further details: species or system guinea pig.
Method: (§2) The sigma-1 and sigma-2 receptor binding affinities of sigma-2 ligands were determined using a competition assay as previously described[32],[33]. […] The concentrations of each non-radioactive compound ranged from 0.1 to 10 μM. The non-specific binding was determined in the presence of 10 μM haloperidol. […] The concentrations of each non-radioactive compound ranged from 0.1 nM to 10 μM. 500 nM of (+)-pentazocine was added to mask the sigma-1 receptor binding site. The non-specific binding was determined in the presence 10 μM DTG.
(§3) After incubation, the bound ligands were filtrated with a M-24 Brandel filtration system (Brandel, Gaithersburg, MD, USA), collected on glass fiber papers (Whatman grade 934-AH, GE Healthcare Bio-Sciences, Pittsburgh, PA), and counted with a MicroBeta2 Microplate counter 2450 (Perkin Elmer, Boston, MA). […] Ki values were reported as mean ± SD from at least three independent experiments.

The test system of data set [5] is control HeLa cells. Kind of data set: Cell viability assay (CellTiter Glo), control cells. Conditions: 24 h, mean ± SD. In kind it is cell-based, human. The procedure:
(§1) HeLa human cervical cancer cells were from American Type Culture Collection (ATCC, Manassas, VA). Control, TMEM97 KO, PGRMC1 KO and TMEM97/PGRMC1 double KO HeLa cell lines were grown in MEM containing 10% fetal bovine serum, 2 mM L-glutamine, 1% non-essential amino acids, 100 units/ml penicillin, and 100 μg/ml streptomycin. All the cell lines were maintained at 37 °C in a humidified incubator with a 5% CO2/95% air atmosphere.
For orientation: In ATP-based viability assays light output follows the ATP content of the culture.

The test system of data set [6] is TMEM97 KO HeLa cells. The data set can be described thus: Cell viability assay (CellTiter Glo), TMEM97 KO cells. The note with it: 24 h, mean ± SD. In kind it is cell-based, human. The procedure:
as §1

Data set [7] has as its system PGRMC1 KO HeLa cells. Kind of data set: Cell viability assay (CellTiter Glo), PGRMC1 KO cells. In kind it is cell-based, human. The note with it: 24 h, mean ± SD. The procedure:
as §1

Data set [8] has as its system TMEM97/PGRMC1 double KO HeLa cells. Kind of data set: Cell viability assay (CellTiter Glo), double KO cells. The note with it: 24 h, mean ± SD. The data set is classed as cell-based, human. The procedure:
as §1

Data set [9] has as its system DTG residual binding site (RBS). The data set can be described thus: DTG RBS competition binding assay, TMEM97 KO cell membranes. The note with it: TMEM97 KO HeLa cell membranes, 45 nM [3H]DTG, 500 nM (+)-pentazocine mask. Further details: species or system human.
Method: (§4) The binding affinities of sigma-2 ligands for the DTG RBS were determined using a competition assay as previously described[13],[33] with minor modification. For cell harvesting, TMEM97 KO or TMEM97/PGRMC1 double KO HeLa cells were scraped from culture dishes in ice-cold Phosphate-Buffered Saline (PBS) and collected by centrifugation. The cell pellets were immediately stored at −80 °C until use. For cell membrane homogenate preparation, the cell pellets were re-suspended in 10 mL ice-cold PBS, and homogenized using Wheaton overhead stirrer (120 Vac Overhead Stirrer, Millville, NJ, USA) at the speed of 2 for 30 sec. The cell homogenates were then centrifuged for 20 min at 31,000×g at 4 °C. After centrifugation, the supernatant was discarded and the pellets were re-suspended in 1 mL ice-cold PBS and stored at −80 °C freezer until use. […] 500 nM (+)-pentazocine was added to mask the sigma-1 receptor binding site. The non-specific binding was determined in the presence of 60 μM cold DTG.
as §3
The test system is the same in data set [10]. Kind of data set: DTG RBS competition binding assay, double KO cell membranes. The note with it: double KO HeLa cell membranes, 45 nM [3H]DTG, 500 nM (+)-pentazocine mask. Set-up: species or system human.
Method: as §4, §3
Data set [11] deals with caspase-3 activation in control and knockout HeLa cells. Kind of data set: Caspase-Glo 3/7 assay. The note with it: 24 h, TMEM97 KO and PGRMC1 KO cell lines. The data set is classed as cell-based, human. The procedure:
HeLa cells were plated in white opaque 96-well plate at a cell density of 5000 cells per well for 24 h. […] Caspase-3/7 activity was measured by using the Caspase-Glo 3/7 Assay (Promega).

For data set [12], the target named is T1, sigma-2 receptors. The data set can be described thus: Sigma-2 receptor competition binding assay with [3H]DTG. Set-up: 60 μg Sprague Dawley rat liver membrane homogenates; from tissue; host or cells: Sprague Dawley rat liver membrane homogenates.
Method: as §2, §3
In data set [13] the test system is control, TMEM97 KO, PGRMC1 KO and double KO HeLa cells. Kind of data set: Cell viability assay across control and knockout HeLa cell lines (results in words). Conditions: for block of sigma-2 ligand-induced cytotoxicity: 30 µM, 1 h pre-incubation, then with sigma-2 agonists 24 h, all four cell lines; for cytotoxicity in control and knockout cells: TMEM97 KO, PGRMC1 KO and double KO HeLa cells.
Method: In order to study whether sigma-2 ligand-induced cytotoxicity is mediated by sigma-1 receptors, we used a sigma-1 agonist, (+)-pentazocine, or sigma-1 antagonist, NE-100, to block the sigma-1 binding site and then examined sigma-2 ligand-induced cytotoxicity. […] We pre-incubated cells with vehicle (cell culture media), 30 µM (+)-pentazocine, or 30 µM NE-100 for 1 h, then treated cells with sigma-2 agonists in the absence or presence of (+)-pentazocine or NE-100 for 24 h.
The cytotoxicity of compounds was determined using the CellTiter Glo® chemiluminescent assay (Promega, Madison, WI) that measures ATP. Cells were plated in black wall clear bottom 96-well plates at 5000 cells per well 24 h before treatment. Each compound was dissolved in DMSO and serially diluted in culture medium to acquire the desired concentrations. The final concentration of DMSO in the cell culture medium was no more than 1.0%. After 24 h treatment with the various compounds, 25 μl of the CellTiter Glo® Solution Reagent was added to each well. Then plates were immediately read on a Perkin Elmer Enspire® Multimode Plate Reader. Luminescence detected for each well was normalized to the untreated control and data was calculated as percent viability. The EC50, defined as the concentration of the sigma ligand required to inhibit cell proliferation by 50% relative to untreated cells, was determined from the dose–response curves generated using GraphPad Prism version 6 (GraphPad Software, Inc. La Jolla, CA).

For data set [14] the test system is unchanged. Kind of data set: Internalization of SW120 (confocal imaging). The data set is classed as cell-based, human. Conditions: 100 nM, room temperature. The procedure: HeLa cells were plated on 35-mm-diameter glass-bottom dishes at 2 × 10^5 cells per dish and incubated for 24 h. Prior to imaging, media was removed and fresh media containing 100 nM SW120 was added to the dishes. SW120 uptake in the live cells at room temperature was imaged using an inverted confocal microscope (Leica STED 3× super-resolution microscope). Images were acquired at 25 s intervals using a ×10 objective lens (using an excitation wavelength of 488 nm, and a 505 to 540 nm bandpass filter). Five optical slices at 2-μm intervals were scanned using the Z-stack function of the Leica imaging software. The brightest optical slice out of the five Z-stack optical slices was chosen for fluorescent intensity analysis. Twenty cells were analyzed in each dish using Fiji, an open-source platform based on ImageJ[35]. The fluorescent intensity was calculated as an average of 60 cells from three independent experiments (mean ± SEM).

[15] abbreviates: guinea pig brain membranes, 5 nM [3H](+)-pentazocine, mean ± SD, read-out: Ki for sigma-1 receptors.
Where [16] appears, read: rat liver membranes, 5 nM [3H]DTG, 500 nM (+)-pentazocine mask, mean ± SD, read-out: Ki for sigma-2 receptors.

Like-named read-outs stand apart in the source and are kept apart here.

For the compound `Cc1ccccc1NC(=N)Nc1ccccc1C` [[^3H]DTG, 1,3-Di-o-tolylguanidine], the “Bmax of [3H]DTG” value in data set [1] is 8958.0 ± 924.9 fmol/mg. Further, the Kd in data set [2] is 0.302 µM; in data set [3] it was 0.403 µM.
Regarding `COc1ccc(C)cc1NC(=O)OC1CC2CCCC(C1)N2CCCCCCCCCCN` (stereo not drawn) [SW43], the Ki in data set [4] (setting [15]) came to 0.278 ± 0.065 µM; in [9] it was 33.5 µM; in [10], 8.62 µM; in [12], 0.0129 ± 0.0023 µM. For the same compound, the EC50 in data set [5] (Homo sapiens) amounted to 33.7 ± 8.6 µM; in [6] (Homo sapiens), 30.4 ± 3.4 µM; in data set [7] (Homo sapiens) it was 33.2 ± 1.6 µM; in data set [8] (Homo sapiens), 32.8 ± 3.8 µM. Also, the “EC50 of caspase-3/7 activation, comparison of cell lines” value in data set [11] was “identical”.
On to `CCCN(CCC)CCc1ccc(OC)c(OCCc2ccccc2)c1` [NE-100], for which the EC50 in data set [5], in data set [6], in data set [7] and in [8] was more than 200 µM throughout. Besides, the “block of sigma-2 ligand-induced cytotoxicity” value in data set [13] is “neither (+)-pentazocine nor NE-100 blocked sigma-2 ligand-induced cytotoxicity”. Besides, the “cytotoxicity in control and knockout cells” value in [13] is listed as “did not exhibit cytotoxicity”.
As to `Fc1ccc(-n2cc(CCCCN3CCC4(CC3)OCc3ccccc34)c3ccccc32)cc1` [Siramesine, siramesine], the figures for the Ki in data set [4], in data set [9] and in data set [10] were 0.003 ± 0.0005 µM, 0.115 µM and 0.0497 µM, respectively. Also, the EC50 in [5] (Homo sapiens) worked out at 12.1 ± 1.7 µM; in data set [6] (Homo sapiens) it was 10.3 ± 1.49 µM; in [7] (Homo sapiens), 10.7 ± 0.7 µM; in data set [8] (Homo sapiens), 10 ± 1.3 µM.
In the case of `COc1cc2c(cc1OC)CN(CCCCNC(=O)c1cc(I)cc(OC)c1OC)CC2` [RHM-4], the Ki in data set [4] (setting [15]) was 3.61 ± 0.533 µM; in data set [9], more than 100 µM; in data set [10] it was more than 100 µM; in data set [12] (setting [16]), 0.0024 ± 0.0002 µM. In addition, the EC50 in data set [5] (Homo sapiens), in [6] (Homo sapiens), in data set [7] (Homo sapiens) and in data set [8] (Homo sapiens) was more than 200 µM in each case.
Take `COc1cc2c(cc1OC)CN(CCCCNC(=O)c1cc(C)ccc1OCCF)CC2` [ISO-1]: the Ki in data set [4] (setting [15]) was 0.0239 ± 0.0019 µM; in data set [12] (setting [16]) it was 0.002 ± 0.0006 µM. Besides, the EC50 in [5] (Homo sapiens), in [6] (Homo sapiens), in data set [7] (Homo sapiens) and in data set [8] (Homo sapiens) was more than 200 µM in each case. Moreover, the “cytotoxicity in control and knockout cells” value in [13] was “did not exhibit”.
On to `COc1cccc2c1CCCC2CCCN1CCN(C2CCCCC2)CC1` (stereo not drawn) [PB28, 1-Cyclohexyl-4-[3-(5-methoxy-1,2,3,4-tetrahydronaphthalen-1-yl)propyl]piperazine], for which the EC50 in [5] (Homo sapiens) was found to be 58.2 ± 5.9 µM; in data set [6] (Homo sapiens), 59.8 ± 10.7 µM; in data set [7] (Homo sapiens), 59.4 ± 8 µM; in [8] (Homo sapiens), 57.4 ± 6.9 µM. Further, the results for the Ki in data set [9], in data set [10] and in [12] (setting [16]) were 0.0087 µM, 0.0052 µM and 0.0011 ± 0.0003 µM, respectively.
For `CC(C)=CCN1CC[C@]2(C)c3cc(O)ccc3C[C@H]1[C@H]2C` [(+)-pentazocine], the EC50 in data set [5], in data set [6], in data set [7] and in data set [8] was more than 200 µM each time. Also, in data set [13], the “block of sigma-2 ligand-induced cytotoxicity” value was “neither (+)-pentazocine nor NE-100 blocked sigma-2 ligand-induced cytotoxicity”. The “cytotoxicity in control and knockout cells” value in data set [13] is reported as “did not exhibit cytotoxicity”.
`COc1cc2c(cc1OC)CN(CCCCNC(=O)c1cc(C)ccc1OC)CC2` [RHM-1]: the inhibition constant Ki in data set [4] (setting [15]) was 1.93 ± 0.625 µM. The EC50 in data set [5] (Homo sapiens), in [6] (Homo sapiens), in [7] (Homo sapiens) and in data set [8] (Homo sapiens) was more than 200 µM each time. In addition, the “cytotoxicity in control and knockout cells” value in data set [13] is recorded as “did not exhibit”.
In the case of `COc1ccc(C)cc1NC(=O)OC1CC2CCCC(C1)N2CCCCCCCCCCNc1ccc([N+](=O)[O-])c2nonc12` (stereo not drawn) [SW120], the Ki was 1.94 ± 0.262 µM in [4] (setting [15]) and 0.001 ± 0.0003 µM in data set [12]. Also, the “uptake signals at 60, 90 and 120 min, all cell lines” value in data set [14] is listed as “essentially the same for all the cell lines”. In addition, in [14] (25-sec intervals for 18 min, TMEM97 KO, PGRMC1 KO and double KO cells), the “internalization rate in knockout cells compared to control cells” value was “reduced internalization rates”.
